For assay [1], the system named is Escherichia coli. Briefly: Antibacterial activity against Escherichia coli XL-1 Blue assessed as inhibition of microbial growth at 0.064 ug/ml to 125 ug/ml incubated at 37 degC for 20 hrs. It is filed as functional, organism-based.
Assay [2] concerns Staphylococcus aureus. The assay can be described thus: Antibacterial activity against Staphylococcus aureus ATCC 25923 assessed as inhibition of microbial growth at 0.064 ug/ml to 125 ug/ml incubated at 37 degC for 20 hrs. It is filed as functional. Conditions: ATCC 25923, 20 h.
Assay [3] deals with Staphylococcus aureus. Briefly: Antibacterial activity against methicillin-resistant Staphylococcus aureus ATCC 33591 assessed as inhibition of microbial growth at 0.064 ug/ml to 125 ug/ml incubated at 37 degC for 20 hrs. It counts as functional. As to conditions: ATCC 33591, 20 h.

Activity calls are given as the source filed them. The calls are words filed in the database; no cut-off is given here.

For the compound `CC(=O)O[C@@H]1[C@H]2[C@H](C)[C@H](O)CC[C@]2(C)[C@@H]2CC[C@H]3/C(=C(\CCC=C(C)C)C(=O)O)[C@@H](OC(C)=O)C[C@]3(C)[C@@]2(C)[C@H]1O`, the MIC result in assay [1] was “inactive”. For the same compound, the MIC in assay [2] and in assay [3] was 8 µg/mL throughout.
For the compound `CC(=O)O[C@H]1C[C@@]2(C)[C@@H](CC[C@H]3[C@@]4(C)CC[C@@H](O)[C@@H](C)[C@@H]4[C@@H](O)[C@H](OC(C)=O)[C@@]32C)/C1=C(\CCC=C(C)C)C(=O)O`, the MIC entry in assay [1] was “inactive”. Besides, the values for the MIC in assay [2] and in assay [3] were 64 µg/mL and 125 µg/mL, respectively.
For `CC(=O)OC1C[C@@]2(C)[C@@H](CC[C@H]3[C@@]4(C)CCC(=O)[C@@H](C)[C@@H]4[C@@H](O)[C@H](O)[C@@]32C)/C1=C(\CCC=C(C)C)C(=O)O` (single isomer, unassigned), in that order: “inactive”, greater than 125 µg/mL and greater than 125 µg/mL.
On to `CC(=O)OC1C[C@@]2(C)[C@@H](CC[C@H]3[C@@]4(C)CCC(=O)[C@@H](C)[C@@H]4[C@@H](O)[C@H](OC(C)=O)[C@@]32C)/C1=C(\CCC=C(C)C)C(=O)O` (single isomer, unassigned), for which the MIC result in assay [1] is “inactive”. In addition, the values for the MIC in assay [2] and in assay [3] were 64 µg/mL and greater than 125 µg/mL, respectively.
With `CC(=O)OC1C[C@@]2(C)[C@@H](CC[C@H]3[C@@]4(C)CCC(=O)[C@@H](C)[C@@H]4[C@@H](OC(C)=O)[C@H](O)[C@@]32C)/C1=C(\CCC=C(C)C)C(=O)O` (single isomer, unassigned), the MIC result in assay [1] was “inactive”. For the same compound, the MIC stood at 4 µg/mL in assay [2] and 8 µg/mL in assay [3].
For `NC[C@H]1O[C@H](O[C@H]2[C@H](O)[C@@H](O[C@H]3O[C@H](CO)[C@@H](O)[C@H](N)[C@H]3O)[C@H](N)C[C@@H]2N)[C@H](O)[C@@H](O)[C@@H]1O` [KANAMYCIN], the MIC in assay [2] is 2 µg/mL; in assay [3], greater than 125 µg/mL.

What is called MIC is the lowest concentration that inhibits growth of the organism.

Source of the values: ChEMBL document CHEMBL3400133, “Three new fusidic acid derivatives and their antibacterial activity” (2015).
